# Test results from patent publication US20110046127A1, “Imidazopyridazines for Use as Protein Kinase Inhibitors” (priority 2007, published 2011).
# System: T1, PIM-1 or PIM-2
# T1 construct: fused on or other part: C-terminal histidine tag (PIM-1 enzyme); N-terminal histidine tag (PIM-2 enzyme)
# Assay: PIM-1 / PIM-2 biochemical assay (ADP Hunter assay kit)
# Design: species or system human
# Details: tested in either the PIM-1 or the PIM-2 biochemical assay (as appropriate); ATP 100 μM
# From the text: The biochemical assay to measure PIM-1 activity relies on the ADP Hunter assay kit (DiscoveRx Corp., Cat. # 90-0077), that determines the amount of ADP as direct product of the kinase enzyme activity.
# The enzyme has been expressed and purified in-house as a recombinant human protein with a C-terminal histidine tag. The protein is active and stable.
# (§1) Assay conditions were as indicated by the kit manufacturers with the following adaptations for the kinase activity step: • Kinase assay buffer and assay volume stay as recommended (15 mM HEPES, pH 7.4, 20 mM NaCl, 1 mM EGTA, 0.02% Tween 20, 10 mM MgCl2 and 0.1 mg/ml bovine γ-globulins/75 μl assay volume) • Incubation time and temperature: 60 min at 30° C. • PIM-1 concentration: 50 pg/μl • ATP concentration: 100 μM • PIM-1 substrate peptide: PIMtide (ARKRRRHPSGPPTA) • Peptide concentration: 60 μM • Positive control for kinase activity inhibition: 1-10 μM Staurosporine • DMSO concentration have to stay below 2% during the kinase reaction
# Assays were performed in either 96 or 384-well plates. The final outcome of the coupled reactions provided by the kit is the release of the fluorescent product Resorufin and has been measured with a multilabel HTS counter VICTOR V (PerkinElmer) using an excitation filter at 544 nm and an emission filter at 580 nm.
# The biochemical assay to measure PIM-2 activity relies on the ADP Hunter assay kit (DiscoveRx Corp., Cat. # 90-0077), that determines the amount of ADP as direct product of the kinase enzyme activity.
# The enzyme has been expressed and purified in-house as a recombinant human protein with a N-terminal histidine tag. The protein is active and stable.
# as §1, with “mg/ml bovine γ-globulins/20 μl assay” for “mg/ml bovine γ-globulins/75 μl assay”, “and temperature: 30 min at” for “and temperature: 60 min at”, “C. • PIM-2 concentration: 350” for “C. • PIM-1 concentration: 50”, “PIM-2 concentration: 350 pg/μl •” for “PIM-1 concentration: 50 pg/μl •”, “Peptide concentration: 100 μM •” for “Peptide concentration: 60 μM •”
row,SMILES,IC50 [µM]
1,"Cc1cc2ncc(C#Cc3ccccc3)n2nc1NCc1ccc(Cl)c(Cl)c1 [Example 70, (3,4-Dichloro-benzyl)-(7-methyl-3-phenylethynyl-imidazo[1,2-b]pyridazin-6-yl)-amine]",2.22
2,"Cc1cc(NCc2ccc(Cl)c(Cl)c2)nn2c(C#Cc3ccccc3)cnc12 [Example 71, (3,4-Dichloro-benzyl)-(8-methyl-3-phenylethynyl-imidazo[1,2-b]pyridazin-6-yl)-amine]",5.19
3,"Clc1ccc(CNc2ccc3ncc(C#CCc4ccccc4)n3n2)cc1Cl [Example 73, N-(3,4-dichlorobenzyl)-3-(3-phenylprop-1-ynyl)imidazo[1,2-b]pyridazin-6-amine]",2.85
4,"Cc1nc2ccc(NCc3ccc(F)cc3)nn2c1C(=O)Nc1ccccc1 [Example 80, 6-(4-Fluoro-benzylamino)-2-methyl-imidazo[1,2-b]pyridazine-3-carboxylic acid phenylamide]",4.55
5,"COc1ccc(CNc2ccc3nc(C)c(C(=O)Nc4ccccc4)n3n2)cc1 [Example 81, 6-(4-Methoxy-benzylamino)-2-methyl-imidazo[1,2-b]pyridazine-3-carboxylic acid phenylamide]",8.87
6,"O=C(Nc1cnc2ccc(-c3ccccc3)nn12)c1ccccc1 [Example 84, N-(6-Phenyl-imidazo[1,2-b]pyridazin-3-yl)-benzamide]",5.23
7,"CCS(=O)(=O)Nc1cnc2ccc(-c3ccccc3)nn12 [Example 85, Ethanesulfonic acid (6-phenyl-imidazo[1,2-b]pyridazin-3-yl)-amide]",17.4
8,"O=S(=O)(Nc1cnc2ccc(-c3ccccc3)nn12)c1ccccc1 [Example 86, N-(6-Phenyl-imidazo[1,2-b]pyridazin-3-yl)-benzenesulfonamide]",14.5
9,"CCC(=O)Nc1cnc2ccc(NCc3ccc(F)cc3)nn12 [Example 89, N-[6-(4-Fluoro-benzylamino)-imidazo[1,2-b]pyridazin-3-yl]-propionamide]",19
10,"O=C(Nc1cnc2ccc(NCc3ccc(F)cc3)nn12)c1ccccc1 [Example 90, N-[6-(4-Fluoro-benzylamino)-imidazo[1,2-b]pyridazin-3-yl]-benzamide]",1.15
11,"COc1ccc(C(=O)Nc2cnc3ccc(NCc4ccc(F)cc4)nn23)cc1 [Example 91, N-[6-(4-Fluoro-benzylamino)-imidazo[1,2-b]pyridazin-3-yl]-4-methoxy-benzamide]",0.31
12,"O=C(Nc1cnc2ccc(Oc3ccccc3)nn12)c1ccccc1 [Example 98, N-(6-Phenoxy-imidazo[1,2-b]pyridazin-3-yl)-benzamide]",4.65
13,"COc1ccc(C(=O)Nc2cnc3ccc(-n4ccnc4)nn23)cc1 [Example 100, N-(6-Imidazol-1-yl-imidazo[1,2-b]pyridazin-3-yl)-4-methoxy-benzamide]",19.1
14,"O=C(Nc1cnc2ccc(NCc3ccc(F)cc3)nn12)c1ccc(O)cc1 [Example 101, N-[6-(4-Fluoro-benzylamino)-imidazo[1,2-b]pyridazin-3-yl]-4-hydroxy-benzamide]",0.41
15,"O=C(Nc1cnc2ccc(NCc3ccc(F)cc3)nn12)c1cccc(O)c1 [Example 102, N-[6-(4-Fluoro-benzylamino)-imidazo[1,2-b]pyridazin-3-yl]-3-hydroxy-benzamide]",2.25
16,"O=C(Nc1cnc2ccc(-n3ccnc3)nn12)c1ccc(O)cc1 [Example 103, 4-Hydroxy-N-(6-imidazol-1-yl-imidazo[1,2-b]pyridazin-3-yl)-benzamide]",14.4
